The values that follow come from patent publication US10377791B2, “Therapeutically active estratrienthiazole derivatives as inhibitors of 17 B-hydroxysteroid dehydrogenase, type 1” (FORENDO PHARMA LTD, priority 2013, dated 2019).

“And” between values parts separate entries of the source, which are not always exact repeats. Equal entries are not always repeated. Structures can show the parent of a compound that is named as a salt. Where two headings read alike, the source gives them in different places.

Experiment [1] has as its target T1, recombinant human 17β-HSD2 (Homo sapiens, UniProt P37059).
T1 construct: made in house; host or cells: Sd9 (Sf9) insect cells, baculovirus (Bac to Bac Expression System)
T1 sequence (P37059 1-387): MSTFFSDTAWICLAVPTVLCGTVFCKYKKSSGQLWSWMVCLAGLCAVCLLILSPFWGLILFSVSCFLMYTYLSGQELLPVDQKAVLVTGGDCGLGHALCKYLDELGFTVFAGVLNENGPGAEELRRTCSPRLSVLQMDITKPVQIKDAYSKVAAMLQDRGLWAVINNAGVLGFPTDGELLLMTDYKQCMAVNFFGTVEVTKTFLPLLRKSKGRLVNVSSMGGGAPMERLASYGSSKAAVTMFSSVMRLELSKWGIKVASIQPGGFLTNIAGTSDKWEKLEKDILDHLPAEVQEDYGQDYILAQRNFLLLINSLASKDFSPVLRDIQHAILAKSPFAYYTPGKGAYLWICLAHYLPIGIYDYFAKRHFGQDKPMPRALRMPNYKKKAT
Put plainly: Inhibition of recombinant human 17β-HSD2. The experiment is classed as biochemical. To be noted: for inhibition at 1 µM: read-out: 17β-HSD2 Inhibition % at 1 μM. Here is the method:
Similarly to 17β-HSD1 the Recombinant baculovirus was generated by the “Bac to Bac Expression System” (Invitrogen). Recombinant bacmid was transfected to Sd9 insect cells using “Cellfectin Reagent” (Invitrogen). 60 h later cells were harvested and supernatant were fractionated by the following protocol: • cells were dissolved into 40 ml of A-buffer (40 mM TRIS, pH8.0, 20% glycerol, 20 μM NAD, 0.4 mM PMSF, 150 mM NaCl, 0.5% dodecyl-β-maltoside+protease inhibitor cocktail) • cells were sonicated • lysate was incubated on ice for 15 min • lysate was centrifuged 5000 rpm 15 min, +4° C. • centrifugation of the supernatant 180 000 g 30 min, +4° C. • pellet was dissolved into 8 ml of A-buffer • not resuspended material was removed by centrifugation 5000 rpm 15 min, +4° C. • the clear supernatant was divided into 100 μl aliquots and were stored frozen until determination of enzymatic activity.
The amount of 17β-HSD2 was analysed by immunoblotting and total protein concentration of each extract batch was determined.
Recombinant protein (4 μg/ml) was incubated in 20 mM KH2PO4 pH 8.5 with 50 nM estradiol (including 800 000 cpm/ml of ^3H-estradiol) and 1 mM NADH for 30 min at RT, in the presence of the potential inhibitor at concentrations 1 μM or 0.1 μM. Inhibitor stock solutions were prepared in DMSO. Final concentration of DMSO was adjusted to 1% in all samples. The enzyme reaction was stopped by addition of 10% trichloroacetic acid (final concentration). Samples were centrifuged in a microtiter plate at 4000 rpm for 10 min. Supernatants were applied to reverse phase HPLC on a Waters Symmetry C18 column, equipped with a Waters Sentry Guard column. Isocratic HPLC runs were performed at RT at a flow rate of 1 ml/min in acetonitrile:water 48:52 as running solvent. Radioactivity was monitored in the eluate by a Packard Flow Scintillation Analyzer. Total radioactivity for estrone and estradiol were determined in each sample and percent conversion of estradiol to estrone was calculated according to the following formula:
(§1) [formula] Percent inhibition was calculated flowingly: % inhibition=100−% conversion

For experiment [2], the target named is T2, recombinant human 17β-HSD1 (Homo sapiens, UniProt P14061).
T2 construct: made in house; host or cells: Sd9 (Sf9) insect cells, baculovirus (Bac to Bac Expression System)
T2 sequence (P14061 1-328): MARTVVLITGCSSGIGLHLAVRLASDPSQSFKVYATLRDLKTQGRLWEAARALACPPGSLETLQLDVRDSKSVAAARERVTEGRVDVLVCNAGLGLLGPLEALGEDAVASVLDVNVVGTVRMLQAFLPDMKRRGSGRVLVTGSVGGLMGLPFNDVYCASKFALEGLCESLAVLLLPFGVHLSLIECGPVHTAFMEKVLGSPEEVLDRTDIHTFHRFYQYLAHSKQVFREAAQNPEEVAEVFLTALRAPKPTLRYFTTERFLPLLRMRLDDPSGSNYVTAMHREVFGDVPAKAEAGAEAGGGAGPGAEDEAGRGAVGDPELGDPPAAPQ
Nature of the experiment: Inhibition of recombinant human 17β-HSD1. To be noted: for inhibition at 1 µM: read-out: 17β-HDS1 Inhibition % at 1 μM. The experiment is classed as biochemical. Here is the method: Recombinant baculovirus was generated by the “Bac to Bac Expression System” (Invitrogen). Recombinant bacmid was transfected to Sd9 insect cells using “Cellfectin Reagent” (Invitrogen). 60 h later cells were harvested; the microsomal fraction was isolated as described by Puranen, T. J., Poutanen, M. H., Peltoketo, H. E., Vihko, P. T. and Vihko, R. K. (1994) Site-directed mutagenesis of the putative active site of human 17 β-hydroxysteroid dehydrogenase type 1. Biochem. J. 304: 289-293. Aliquots were stored frozen until determination of enzymatic activity.
Recombinant protein (1 μg/ml) was incubated in 20 mM KH2PO4 pH 7.4 with 30 nM estrone (including 800 000 cpm/ml of ^3H-estrone) and 1 mM NADPH for 30 min at RT, in the presence of the potential inhibitor at concentrations 1 μM or 0.1 μM. Inhibitor stock solutions were prepared in DMSO. Final concentration of DMSO was adjusted to 1% in all samples. The enzyme reaction was stopped by addition of 10% trichloroacetic acid (final concentration). Samples were centrifuged in a microtiter plate at 4000 rpm for 10 min. Supernatants were applied to reverse phase HPLC on a Waters Symmetry C18 column, equipped with a Waters Sentry Guard column. Isocratic HPLC runs were performed at RT at a flow rate of 1 ml/min in acetonitrile:water 48:52 as running solvent. Radioactivity was monitored in the eluate by a Packard Flow Scintillation Analyzer. Total radioactivity for estrone and estradiol were determined in each sample and percent conversion of estrone to estradiol was calculated according to the following formula:
as §1

Setting [3] is: inhibitor at 1 μM, 50 nM estradiol, 1 mM NADH, 30 min at RT.
Where [4] appears, read: inhibitor at 1 μM, 30 nM estrone, 1 mM NADPH, 30 min at RT.

For the molecule `CC(=O)Oc1ccc2c(c1)CCC1C2CC[C@]2(C)C(=O)C[C@@H](CCC(=O)Nc3ncc(C)s3)C12` (stereo partly drawn) [Compound 1, Acetic acid (13S,15R)-13-methyl-15-[2-(5-methylthiazol-2-ylcarbamoyl)-ethyl]-17-oxo-7,8,9,11,12,13,14,15,16,17-decahydro-6H-cyclopenta[a]phenanthren-3-yl ester], the inhibition (usually the relative decrease from the control value, in per cent) at 1 µM was 13% in experiment [1] (setting [3]) and 92% in experiment [2] (setting [4]).

As to `Cc1cnc(NC(=O)CC[C@@H]2CC(=O)[C@@]3(C)CCC4c5ccc(OS(N)(=O)=O)cc5CCC4C23)s1` (stereo partly drawn) [Compound 4, Sulphamic acid (13S,15R)-13-methyl-15-[2-(5-methylthiazol-2-ylcarbamoyl)-ethyl]-17-oxo-7,8,9,11,12,13,14,15,16,17-decahydro-6H-cyclopenta[a]phenanthren-3-yl ester], the inhibition at 1 µM in experiment [1] (setting [3]) turned out to be 3%; in experiment [2] (setting [4]) it was 82%.

Regarding `Cc1cnc(NC(=O)CC[C@@H]2CC(=O)[C@@]3(C)CCC4c5ccc(OP(=O)(O)O)cc5CCC4C23)s1` (stereo partly drawn) [Compound 7, Phosphoric acid mono-{(13S,15R)-13-methyl-15-[2-(5-methylthiazol-2-ylcarbamoyl)-ethyl]-17-oxo-7,8,9,11,12,13,14,15,16,17-decahydro-6H-cyclopenta[a]phenanthren-3-yl} ester], the “17β-HSD2 Inhibition % at 1 μM” value in experiment [1] (setting [3]) was determined as 3%. Also, in experiment [2] (setting [4]), the inhibition at 1 µM was found to be 80%.

For `Cc1cnc(NC(=O)CC[C@@H]2CC(=O)[C@@]3(C)CCC4c5ccc(OP(=O)([O-])[O-])cc5CCC4C23)s1.[Na+].[Na+]` (stereo partly drawn) [Compound 8, Phosphoric acid mono-{(13S,15R)-13-methyl-15-[2-(5-methylthiazol-2-ylcarbamoyl)-ethyl]-17-oxo-7,8,9,11,12,13,14,15,16,17-decahydro-6H-cyclopenta[a]phenanthren-3-yl} ester disodium salt], the “17β-HSD2 Inhibition % at 1 μM” value in experiment [1] (setting [3]) is 0%. Also, in experiment [2] (setting [4]), the “17β-HDS1 Inhibition % at 1 μM” value is 81%.

On to `Cc1cnc(NC(=O)CC[C@@H]2CC(=O)[C@@]3(C)CCC4c5ccc(OC(=O)CCC(=O)O)cc5CCC4C23)s1` (stereo partly drawn) [Compound 10, Succinic acid mono-{(13S,15R)-13-methyl-15-[2-(5-methylthiazol-2-ylcarbamoyl)-ethyl]-17-oxo-7,8,9,11,12,13,14,15,16,17-decahydro-6H-cyclopenta[a]phenanthren-3-yl} ester sodium salt], for which the inhibition at 1 µM amounted to 1% in experiment [1] (setting [3]) and 98% in experiment [2] (setting [4]).

For `CC(=O)NCC(=O)Oc1ccc2c(c1)CCC1C2CC[C@]2(C)C(=O)C[C@@H](CCC(=O)Nc3ncc(C)s3)C12` (stereo partly drawn) [Compound 11, Acetylamino-acetic acid (13S,15R)-13-methyl-15-[2-(5-methylthiazol-2-ylcarbamoyl)-ethyl]-17-oxo-7,8,9,11,12,13,14,15,16,17-decahydro-6H-cyclopenta[a]phenanthren-3-yl ester], the “17β-HSD2 Inhibition % at 1 μM” value in experiment [1] (setting [3]) was 0% and 2%. In experiment [2] (setting [4]), the “17β-HDS1 Inhibition % at 1 μM” value is 88% and the inhibition at 1 µM turned out to be 87%.

`Cc1cnc(NC(=O)CC[C@@H]2CC(=O)[C@@]3(C)CCC4c5ccc(OC(=O)CNC(=O)OC(C)(C)C)cc5CCC4C23)s1` (stereo partly drawn) [Compound 15, tert-Butoxycarbonylamino-acetic acid (13S,15R)-13-methyl-15-[2-(5-methylthiazol-2-ylcarbamoyl)-ethyl]-17-oxo-7,8,9,11,12,13,14,15,16,17-decahydro-6H-cyclopenta[a]phenanthren-3-yl ester]: the inhibition at 1 µM in experiment [1] (setting [3]) turned out to be 0%; in experiment [2] (setting [4]) it was 66%.

As for `Cc1cnc(NC(=O)CC[C@@H]2CC(=O)[C@@]3(C)CCC4c5ccc(OC(=O)CN)cc5CCC4C23)s1` (stereo partly drawn) [Compound 16, Amino-acetic acid (13S,15R)-13-methyl-15-[2-(5-methylthiazol-2-ylcarbamoyl)-ethyl]-17-oxo-7,8,9,11,12,13,14,15,16,17-decahydro-6H-cyclopenta[a]phenanthren-3-yl ester], the inhibition at 1 µM in experiment [1] (setting [3]) amounted to 0%; in experiment [2] (setting [4]), 93%.

As for `CC(=O)Oc1ccccc1C(=O)Oc1ccc2c(c1)CCC1C2CC[C@]2(C)C(=O)C[C@@H](CCC(=O)Nc3ncc(C)s3)C12` (stereo partly drawn) [Compound 19, 2-Acetoxy-benzoic acid (13S,15R)-13-methyl-15-[2-(5-methylthiazol-2-ylcarbamoyl)-ethyl]-17-oxo-7,8,9,11,12,13,14,15,16,17-decahydro-6H-cyclopenta[a]phenanthren-3-yl ester], the results for the inhibition at 1 µM in experiment [1] (setting [3]) and in experiment [2] (setting [4]) were 0% and 58%, respectively.

As to `CCOC(=O)Oc1ccc2c(c1)CCC1C2CC[C@]2(C)C(=O)C[C@@H](CCC(=O)Nc3ncc(C)s3)C12` (stereo partly drawn) [Compound 20, Ethyl ((13S,15R)-13-methyl-15-(3-((5-methylthiazol-2-yl)amino)-3-oxopropyl)-17-oxo-7,8,9,11,12,13,14,15,16,17-decahydro-6H-cyclopenta[a]phenanthren-3-yl) carbonate], the inhibition at 1 µM was 0% in experiment [1] (setting [3]) and 52% in experiment [2] (setting [4]).

With `Cc1cnc(NC(=O)CC[C@@H]2CC(=O)[C@@]3(C)CCC4c5ccc(OS(=O)(=O)N(C)C)cc5CCC4C23)s1` (stereo partly drawn) [Compound 23, Dimethyl-sulphamic acid (13S,15R)-13-methyl-15-[2-(5-methylthiazol-2-ylcarbamoyl)-ethyl]-17-oxo-7,8,9,11,12,13,14,15,16,17-decahydro-6H-cyclopenta[a]phenanthren-3-yl ester], the results for the inhibition at 1 µM in experiment [1] (setting [3]) and in experiment [2] (setting [4]) were 6% and 74%, respectively.

Take `Cc1cnc(NC(=O)CC[C@@H]2CC(=O)[C@@]3(C)CCC4c5ccc(OC(=O)N(C)C)cc5CCC4C23)s1` (stereo partly drawn) [Compound 25, Dimethyl-carbamic acid (13S,15R)-13-methyl-15-[2-(5-methylthiazol-2-ylcarbamoyl)-ethyl]-17-oxo-7,8,9,11,12,13,14,15,16,17-decahydro-6H-cyclopenta[a]phenanthren-3-yl ester]: the values for the inhibition at 1 µM in experiment [1] and in experiment [2] were 6% and 52%, respectively.
